# Results: US7754739B2, “Modulators of CFTR” (Vertex Pharmaceuticals Incorporated, priority 2007, dated 2010)
# Molecular target: T1, ΔF508-CFTR (Homo sapiens, UniProt P13569, DEL508-508)
# T1 construct: expressed in transfected cells; host or cells: NIH3T3 mouse fibroblasts, stably expressing
# Assay: Membrane potential optical methods for assaying ΔF508-CFTR modulation properties of compounds
# Type: cell-based
# Details: NIH3T3 cells expressing ΔF508-CFTR
# Source text: Assays for Detecting and Measuring ΔF508-CFTR Correction Properties of Compounds
# Membrane potential optical methods for assaying ΔF508-CFTR modulation properties of compounds
# The optical membrane potential assay utilized voltage-sensitive FRET sensors described by Gonzalez and Tsien (See, Gonzalez, J. E. and R. Y. Tsien (1995) “Voltage sensing by fluorescence resonance energy transfer in single cells” Biophys J 69(4): 1272-80, and Gonzalez, J. E. and R. Y. Tsien (1997) “Improved indicators of cell membrane potential that use fluorescence resonance energy transfer” Chem Biol 4(4): 269-77) in combination with instrumentation for measuring fluorescence changes such as the Voltage/Ion Probe Reader (VIPR) (See, Gonzalez, J. E., K. Oades, et al. (1999) “Cell-based assays and instrumentation for screening ion-channel targets” Drug Discov Today 4(9): 431-439).
# These voltage sensitive assays are based on the change in fluorescence resonant energy transfer (FRET) between the membrane-soluble, voltage-sensitive dye, DiSBAC2(3), and a fluorescent phospholipid, CC2-DMPE, which is attached to the outer leaflet of the plasma membrane and acts as a FRET donor. Changes in membrane potential (Vm) cause the negatively charged DiSBAC2(3) to redistribute across the plasma membrane and the amount of energy transfer from CC2-DMPE changes accordingly. The changes in fluorescence emission were monitored using VIPR™ II, which is an integrated liquid handler and fluorescent detector designed to conduct cell-based screens in 96- or 384-well microtiter plates.
# 1. Identification of Correction Compounds
# To identify small molecules that correct the trafficking defect associated with EF508-CFTR; a single-addition HTS assay format was developed. The cells were incubated in serum-free medium for 16 hrs at 37° C. in the presence or absence (negative control) of test compound. As a positive control, cells plated in 384-well plates were incubated for 16 hrs at 27° C. to “temperature-correct” ΔF508-CFTR. The cells were subsequently rinsed 3× with Krebs Ringers solution and loaded with the voltage-sensitive dyes. To activate ΔF508-CFTR, 10 μM forskolin and the CFTR potentiator, genistein (20 μM), were added along with Cl^−-free medium to each well. The addition of Cl^−-free medium promoted Cl^−-efflux in response to ΔF508-CFTR activation and the resulting membrane depolarization was optically monitored using the FRET-based voltage-sensor dyes.
# 2. […]
# To identify potentiators of ΔF508-CFTR, a double-addition HTS assay format was developed. […] The extracellular Cl^−-concentration following both additions was 28 mM, which promoted Cl^−-efflux in response to ΔF508-CFTR activation and the resulting membrane depolarization was optically monitored using the FRET-based voltage-sensor dyes. […]
# T1 sequence (P13569 with tags, fused parts or gaps DEL508-508): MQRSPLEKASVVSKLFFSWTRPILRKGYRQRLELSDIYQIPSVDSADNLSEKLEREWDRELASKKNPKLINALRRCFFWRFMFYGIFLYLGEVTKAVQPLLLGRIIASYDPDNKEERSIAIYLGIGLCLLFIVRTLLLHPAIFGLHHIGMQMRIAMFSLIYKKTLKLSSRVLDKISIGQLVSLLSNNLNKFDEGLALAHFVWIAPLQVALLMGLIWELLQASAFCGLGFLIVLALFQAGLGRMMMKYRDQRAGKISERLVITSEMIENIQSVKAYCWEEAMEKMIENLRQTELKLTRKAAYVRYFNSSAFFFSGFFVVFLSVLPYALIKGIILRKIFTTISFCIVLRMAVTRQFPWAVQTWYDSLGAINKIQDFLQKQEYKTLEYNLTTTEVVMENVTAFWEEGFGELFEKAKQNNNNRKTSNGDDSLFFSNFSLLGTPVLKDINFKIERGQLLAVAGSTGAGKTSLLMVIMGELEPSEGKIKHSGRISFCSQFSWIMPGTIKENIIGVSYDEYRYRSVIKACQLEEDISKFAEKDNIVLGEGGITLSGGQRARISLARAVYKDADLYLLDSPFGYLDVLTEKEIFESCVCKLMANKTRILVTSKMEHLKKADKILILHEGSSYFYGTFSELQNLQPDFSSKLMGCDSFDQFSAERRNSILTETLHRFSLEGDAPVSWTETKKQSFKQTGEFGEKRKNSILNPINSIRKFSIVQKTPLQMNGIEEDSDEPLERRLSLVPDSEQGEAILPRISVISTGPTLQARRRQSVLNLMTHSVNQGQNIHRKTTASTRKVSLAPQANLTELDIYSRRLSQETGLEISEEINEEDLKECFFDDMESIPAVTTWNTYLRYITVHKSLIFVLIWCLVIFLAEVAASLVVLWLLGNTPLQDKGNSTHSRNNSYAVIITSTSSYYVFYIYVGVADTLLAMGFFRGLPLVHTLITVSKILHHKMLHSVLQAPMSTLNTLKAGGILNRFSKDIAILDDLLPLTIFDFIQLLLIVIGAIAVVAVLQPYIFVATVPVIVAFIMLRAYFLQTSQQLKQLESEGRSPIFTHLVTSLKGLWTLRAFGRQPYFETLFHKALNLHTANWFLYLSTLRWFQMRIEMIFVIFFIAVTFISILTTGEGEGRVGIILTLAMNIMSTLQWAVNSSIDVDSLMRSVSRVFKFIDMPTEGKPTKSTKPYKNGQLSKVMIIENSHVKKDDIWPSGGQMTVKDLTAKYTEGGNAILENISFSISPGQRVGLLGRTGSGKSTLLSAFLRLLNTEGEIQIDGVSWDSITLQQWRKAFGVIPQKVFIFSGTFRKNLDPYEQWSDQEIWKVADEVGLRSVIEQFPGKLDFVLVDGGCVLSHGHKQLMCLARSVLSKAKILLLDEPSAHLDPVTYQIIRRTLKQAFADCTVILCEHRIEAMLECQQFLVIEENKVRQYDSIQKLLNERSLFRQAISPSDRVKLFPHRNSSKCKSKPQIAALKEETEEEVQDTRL
Structure (SMILES),EC50,Percent Efficacy
COc1ccc(C2(C(=O)Nc3ccc(C)c(-c4cccc(C(=O)O)c4)n3)CC2)cc1 [compound 1],≤ 2000 nM,+++ (100.0% < +++)
Cc1ccc(NC(=O)C2(c3ccc4c(c3)CCO4)CC2)nc1-c1cccc(C(=O)O)c1 [compound 2],≤ 2000 nM,+++ (100.0% < +++)
